Laboratory results from patent US20210205340A1, “COMPOSITIONS COMPRISING SIALYLATED OLIGOSACCHARIDES FOR USE IN INFANTS OR YOUNG CHILDREN TO PREVENT LATER IN LIFE OBESITY OR RELATED COMORBIDITIES AND PROMOTE A HEALTHY GROWTH” (NESTEC S.A., priority 2016, published 2021).
Entries after “also recorded” stand apart in the source; their conditions may differ.

Tested on: NCI-H716 cells
Assay: Calcium assay: activation of NCI-H716 cells by sialylated oligosaccharides (change in fluorescence ratio from intracellular calcium increase)
Type: cell-based, human
Details: for significance of the increase in fluorescence ratio / concentration dependence of calcium response / activation of NCI-H716 cells / fluorescence ratio (intracellular calcium response): NCI-H716 cells; for significance of the increase in fluorescence ratio: 5 mg/mL, 10 mg/mL and 20 mg/mL, p<0.05 vs Negative control, two-sided t-test; for concentration dependence of calcium response / activation of NCI-H716 cells: 1-20 mg/mL, FIG. 1 / FIG. 3; for fluorescence ratio (intracellular calcium response): all the tested concentrations (1 mg/mL, 5 mg/mL, 10 mg/mL and 20 mg/mL), vs buffer negative control; for intracellular calcium release: in vitro system with endocrine intestinal cells, indicator of potential GLP-1 secretagogue capacity
Source text: NCI-H716 is a cell line derived from human L-cells, the enteroendocrine cells that secrete GLP-1, and it is often used as a model of GLP-1 secretion. Unstimulated NCI-H716 cells secrete a basal level of GLP-1 and activation of the cells leads to dose-dependent increase in GLP-1 secretion. Activation of the NCI-H716 cells and subsequent release of GLP-1 can be triggered by nutrients such as palmitic acid, oleic acid, and meat hydrolysate, Gastrin Releasing Peptide (GRP), the cholinergic molecule Carbachol, bitter compounds such as denatonium, ginsenosides and other molecules.
Activation of NCI-H716 cells by ionomycin, GRP, denatonium, or ginsenosides leads to increased intracellular calcium. Elevation of intracellular calcium is therefore a marker of cell activation and in NCI-H716 cells it could be considered as an indicator of GLP-1 release.
A calcium assay was used to determine if NCI-H716 cells respond to human milk oligosaccharides (sialylated oligosaccharides) or components/precursors thereof (lactose and sialic acid). In this assay, cultured NCI-H716 cells were loaded with a fluorescent calcium sensitive dye then stimulated with the HMOs. The response to the stimulus was measured by change in fluorescence ratio in consequence of intracellular calcium increase. The tested HMOs were 3′-sialyllactose (3SL) and 6′-sialyllactose (6SL). They were tested individually.
GRP (Gastrin Releasing Peptide): positive control
Tested HMOs concentrations: 1 mg/mL, 5 mg/mL, 10 mg/mL and 20 mg/mL
Tested lactose and sialic acid concentrations: 5.5 mg/mL and 4.72 mg/mL respectively (correspond to the amounts contained in 10 mg/mL of 3SL, in order to make a suitable comparison with 10 mg/mL of 3SL)

SMILES	specificity of the calcium response (3SL 10 mg/mL compared with its components lactose and sialic acid, FIG. 2)	significance of the increase in fluorescence ratio	concentration dependence of calcium response / activation of NCI-H716 cells	fluorescence ratio (intracellular calcium response)	intracellular calcium release	activation of NCI-H716 cells (calcium response) (lactose 5.5 mg/mL (amount contained in 10 mg/mL of 3SL), FIG. 2)	activation of NCI-H716 cells (calcium response) (sialic acid 4.72 mg/mL (amount contained in 10 mg/mL of 3SL), FIG. 2)
CC(=O)N[C@H]1[C@H]([C@H](O)[C@H](O)CO)O[C@@](O[C@H]2[C@@H](O)[C@@H](CO)O[C@@H](O[C@H]3[C@H](O)[C@@H](O)C(O)O[C@@H]3CO)[C@@H]2O)(C(=O)O)C[C@@H]1O (stereo partly drawn) [3SL, (6R)-5-Acetamido-3,5-dideoxy-6-[(1R,2R)-1,2,3-trihydroxypropyl]-β-L-threo-hex-2-ulopyranonosyl-(2->3)β-D-galactopyranosyl-(1->4)-D-glucopyranose]	specific	significant	clear concentration dependent calcium response; also recorded: dose dependent activation	enhanced	increased intracellular calcium release		
CC(=O)N[C@H]1[C@H]([C@H](O)[C@H](O)CO)O[C@@](OC[C@H]2O[C@@H](O[C@H]3[C@H](O)[C@@H](O)C(O)O[C@@H]3CO)[C@H](O)[C@@H](O)[C@H]2O)(C(=O)O)C[C@@H]1O (stereo partly drawn) [6SL, (6R)-5-Acetamido-3,5-dideoxy-6-[(1R,2R)-1,2,3-trihydroxypropyl]-β-L-threo-hex-2-ulopyranonosyl-(2->6)β-D-galactopyranosyl-(1->4)-D-glucopyranose]		significant	clear concentration dependent calcium response; also recorded: dose dependent activation	enhanced	increased intracellular calcium release		
OC[C@H]1O[C@@H](O[C@H]2[C@H](O)[C@@H](O)C(O)O[C@@H]2CO)[C@H](O)[C@@H](O)[C@H]1O (some centres unmarked) [Lactose, lactose, reference compound]						did not activate the cells	
CC(=O)N[C@H]1[C@H]([C@H](O)[C@H](O)CO)OC(O)(C(=O)O)C[C@@H]1O (some centres unmarked) [sialic acid, N-acetylneuraminic acid, reference compound]							did not activate the cells
